What was measured:
[1] = Tolerance to artificial intestinal juice; type: physicochemical; settings: artificial intestinal juice pH 8.0, 37° C., at 240 min
Method: Gastric juice ([…], 2 g/L NaCl, and 3.2 g/L pepsin, pH 2.0) and intestinal juice (6.8 g/L KH2 PO4, 10 g/L trypsin, and 0.1M NaOH, pH 8.0) were prepared, and then the gastric juice and the intestinal juice were filtered and sterilized using 0.22 μm sterile filter. […] The bacterial cells were washed twice with sterile saline and resuspended in 5 mL saline. A bacterial solution was mixed well with the sterile artificial gastric or intestinal juice in 1:1 (v/v). The mixture was shaken well, and then was placed in a constant-temperature incubator and culture was performed at 37° C.

[2] = system: gouty arthritis mouse model; assay: Gouty arthritis mouse model (sodium urate); type: in vivo, BALB/c mice; settings: for SOD in mouse ankle joint tissue: model group 1.07, normal 6.07; for MPO in mouse ankle joint tissue: model group 2.49, normal 0.38; for GSH in mouse ankle joint tissue: model group 18.06, normal 47.05; for IL-1β in serum of mice: model group 24.97, normal 12.66; for MDA in mouse ankle joint tissue: model group 26.69, normal 5.74; for IL-10 in serum of mice: model group 36.03, normal 27.20; for IL-6 in serum of mice: model group 90.05, normal 52.97; for TNF-α in serum of mice: model group 249.41, normal 117.58
Method: Mice were randomly divided into 5 groups: a normal group, a model group, a glucosamine sulfate (positive control) group, an Akk low-concentration experimental (Akk-L) group, and an Akk high-concentration experimental (Akk-H) group, with 10 mice in each group. The mice in the normal group and the mice in the model group were intragastrically administered with distilled water at a dosage of 0.1 mL/10 g. bw per day. The mice in the glucosamine sulfate group were intragastrically administered with glucosamine sulfate at a dosage of 195 mg/kg. bw. The mice in the Akk-L group and the mice in the Akk-H group were intragastrically administered with Akk experimental bacteria at a dosage of 10^8 CFU/kg. bw and 10^9 CFU/kg. bw, respectively, for 7 consecutive days. Then, all experimental mice were anesthetized with isoflurane, and then 50 μL of PBS solution was injected into the tibiotarsal joint (ankle joint) of the right paw of the mouse in the normal group. 50 mg of sodium urate was added to 1 mL of PBS buffer to prepare a suspension. 50 μL of suspension was injected into the tibiotarsal joints (ankle joint) of the right paws of the rest of the mice except the mice in the […] to induce gouty arthritis. After the mice woke up, they were intragastrically administrated with a corresponding sample for 7 d still at the dosage of the sample intragastrically administrated in the previous 7 days.
0.1 g of mouse ankle joint tissue was weighed and added into […] containing 0.9 mL of saline and mixing was performed. Subsequently, mixed tissue samples were centrifuged at a speed of 4000 rpm for 10 min to obtain liquid supernatant. Next, related indicators in the liquid supernatant of a tissue homogenate was determined using assay kits for MPO, SOD, GSH, and MDA.
A taken-out whole blood sample of the mouse was centrifuged at 4° C. at 4000 rpm for 10 min to obtain supernatant serum. Serum-related inflammatory indicators were determined using the ELISA kit for IL-6, IL-10, IL-1β, and TNF-α.

[3] = Cell surface hydrophobicity (bacterial adherence to hydrocarbon, xylene); type: physicochemical; settings: at 60 min
Method: Based on the ability of bacteria to adhere to hydrocarbons, the cell surface hydrophobicity of strain AKK PROBIO was measured. A test of bacterial adherence to hydrocarbon (BATH) was conducted using xylene, and some modifications were made. Specifically, the strains were cultured overnight in a BHI medium at 37° C. Cells were collected by centrifugation (4° C.; 8000 rpm; 10 min), washed twice, and resuspended in a phosphate buffer (PBS, pH 7), and absorbance (OD600 nm) was adjusted to 0.5 to normalize bacteria number. Then, an equal volume of xylene was added and vortexed for 5 min to fully mix a two-phase system. After the incubation at room temperature for 15, 30, and 60 min, an aqueous phase was carefully removed, and its absorbance at 600 nm was measured using a spectrophotometer. The affinity (hydrophobicity) for the hydrocarbons was calculated using the following formula:
[formula] • where P0 and P1 are absorbance values before and after extraction with the hydrocarbons, respectively.

[4] = Akk-H 10^9 CFU/kg. bw intragastric
[5] = Akk-L 10^8 CFU/kg. bw intragastric

## Akkermansia muciniphila [AKK PROBIO]
[1]
  survival rate in intestinal juice: ≥ 80%
[2]; [4]
  SOD in mouse ankle joint tissue: 4.70 ± 0.16 U/mg
  MPO in mouse ankle joint tissue: 0.77 ± 0.06 U/g
  GSH in mouse ankle joint tissue: 39.28 ± 2.39 mg/g
  IL-1β in serum of mice: 18.48 ± 1.34 ng/mL
  MDA in mouse ankle joint tissue: 12.97 ± 1.20 nmol/mg
  IL-10 in serum of mice: 28.72 ± 1.35 ng/mL
  IL-6 in serum of mice: 58.83 ± 2.60 ng/mL
  TNF-α in serum of mice: 148.87 ± 9.60 ng/mL
[2]; [5]
  SOD in mouse ankle joint tissue: 2.31 ± 0.43 U/mg
  MPO in mouse ankle joint tissue: 1.97 ± 0.19 U/g
  GSH in mouse ankle joint tissue: 29.89 ± 2.63 mg/g
  IL-1β in serum of mice: 21.83 ± 1.72 ng/mL
  MDA in mouse ankle joint tissue: 20.93 ± 1.30 nmol/mg
  IL-10 in serum of mice: 34.17 ± 2.18 ng/mL
  IL-6 in serum of mice: 71.59 ± 5.46 ng/mL
  TNF-α in serum of mice: 211.76 ± 10.58 ng/mL
[3]
  hydrophobicity: ≥ 30%
